# Data: patent publication US20020160983A1, “Substituted benzopyranones as telomerase inhibitors” (priority 2001, published 2002)
# Molecular target: telomerase enzyme (Homo sapiens, UniProt O14746)
# Test: Flash Plate-based telomerase activity assay
# Format: biochemical
# Conditions: two hours of incubation at 37°, biotinylated oligo primer, radioactive labeled probe
# Description: The telomerase activity of the compounds has been evaluated using a Flash Plate-based assay.
# Briefly the assay mixture is constituted of:
# telomerase enzyme diluted in a buffer, the composition of which has been selected to maintain the enzyme activity stable along the duration of the assay.
# dNTPs, deoxynucleotides 5′-triphosphate.
# biotinylated oligo as primer.
# increasing concentrations of test compounds/positive control.
# After two hours of incubation at 37° degrees the telomeric repeats added by telomerase are evaluated by hybridization in solution with a 3′-radioactive labeled short oligonucleotide probe.
# The extent of hybridization is then quantitated by transferring the reaction mixture in a streptavidin-coated flash plate, where the binding between biotin and streptavidin occurs.
# The telomerase activity is proportional to the radioactivity measured and the inhibitory activity of the compounds is evaluated as IC50 using the Sigma Plot fit program.
# With the above-described method IC50 values of the compounds of the present invention were determined.
# telomerase enzyme, sequence (O14746 whole entry): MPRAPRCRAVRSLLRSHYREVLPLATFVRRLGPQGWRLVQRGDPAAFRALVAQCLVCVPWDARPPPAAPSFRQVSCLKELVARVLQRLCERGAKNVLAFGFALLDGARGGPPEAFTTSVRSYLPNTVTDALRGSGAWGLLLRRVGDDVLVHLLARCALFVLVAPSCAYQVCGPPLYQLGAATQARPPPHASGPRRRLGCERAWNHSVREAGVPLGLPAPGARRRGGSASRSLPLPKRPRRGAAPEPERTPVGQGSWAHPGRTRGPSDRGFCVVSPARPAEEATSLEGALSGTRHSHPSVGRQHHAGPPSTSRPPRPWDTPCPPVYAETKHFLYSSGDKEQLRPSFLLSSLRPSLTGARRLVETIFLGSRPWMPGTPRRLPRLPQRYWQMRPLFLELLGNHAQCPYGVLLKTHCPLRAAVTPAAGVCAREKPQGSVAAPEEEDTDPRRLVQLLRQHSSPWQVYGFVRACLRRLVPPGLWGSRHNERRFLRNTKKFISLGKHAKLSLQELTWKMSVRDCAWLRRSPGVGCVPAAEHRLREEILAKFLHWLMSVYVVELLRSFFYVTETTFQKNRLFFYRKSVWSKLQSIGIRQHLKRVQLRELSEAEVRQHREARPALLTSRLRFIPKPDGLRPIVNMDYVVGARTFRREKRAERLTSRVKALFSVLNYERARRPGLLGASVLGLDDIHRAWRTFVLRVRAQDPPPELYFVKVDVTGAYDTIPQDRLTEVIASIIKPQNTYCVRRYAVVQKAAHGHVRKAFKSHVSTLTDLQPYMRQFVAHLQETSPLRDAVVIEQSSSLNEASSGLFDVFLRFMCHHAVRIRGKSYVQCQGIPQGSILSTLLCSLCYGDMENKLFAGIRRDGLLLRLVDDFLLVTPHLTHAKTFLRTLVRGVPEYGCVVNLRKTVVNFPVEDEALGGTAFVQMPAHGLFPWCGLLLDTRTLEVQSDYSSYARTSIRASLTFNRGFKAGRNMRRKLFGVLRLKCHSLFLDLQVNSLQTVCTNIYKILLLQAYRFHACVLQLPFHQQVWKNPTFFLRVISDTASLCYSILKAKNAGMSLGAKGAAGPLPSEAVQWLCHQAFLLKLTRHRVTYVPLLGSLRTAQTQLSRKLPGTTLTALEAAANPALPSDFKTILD
row,Structure (SMILES),IC50 [µM]
1,"CC(=O)Oc1ccc(-c2cc(=O)c3ccc(OC(C)=O)c(OC(C)=O)c3o2)cc1OC(C)=O [Compound 14, 2-(3,4-diacetoxyphenyl)-7,8-diacetoxy—4H-chromen-4-one]",15
2,"COc1ccc(-c2cc(=O)c3ccc(OC)c(OC)c3o2)cc1OC [Compound 24, 7,8-dimethoxy-2-(3,4-dimethoxyphenyl)-4H-chromen-4-one]",> 40
3,"COc1ccc(-c2oc3c(OC)c(OC)ccc3c(=O)c2Cl)cc1OC [Compound 38, 3-chloro-2-(3,4-dimethoxyphenyl)-7,8-dimethoxy-4H-chromen-4-one]",> 40
4,"COc1ccc(-c2cc(=O)c3cc(Cl)c(OC)c(OC)c3o2)cc1OC [Compound 50, 6-chloro-2-(3,4-dimethoxyphenyl)-7,8-dimethoxy-4H-chromen-4-one]",5.4
5,"COc1ccc2c(=O)cc(-c3ccc(N)c(N)c3)oc2c1OC [Compound 51, 2-(3,4-diaminophenyl)-7,8-dimethoxy-4H-chromen-4-one]",7.4
6,"COc1ccc2c(=O)cc(-c3ccc(NC(C)=O)c(NC(C)=O)c3)oc2c1OC [Compound 58, N-[2-(acetylamino)-4-(7,8-dimethoxy-4-oxo-4H-chromen-2-yl)phenyl]acetamide]",> 40
7,"COc1ccc2c(=O)cc(-c3ccc4[nH]cnc4c3)oc2c1OC [Compound 61, 2-(1H-benzimidazol-5-yl)-7,8-dimethoxy-4H-chromen-4-one]",2.2
8,"COc1ccc2c(=O)cc(-c3ccc4[nH]nnc4c3)oc2c1OC [Compound 65, 2-(1H-1,2,3-benzotriazol-5-yl)-7,8-dimethoxy-4H-chromen-4-one]",> 40
9,"COc1ccc2c(=O)cc(-c3ccc4[nH]c(=O)[nH]c4c3)oc2c1OC [Compound 67, 5-(7,8-dimethoxy-4-oxo-4H-chromen-2-yl)-1,3-dihydro-2H-benzimidazol-2-one]",19
10,"COc1ccc(-c2cc(=O)c3ccc(OC)c(OC)c3o2)cc1O [Compound 87, 7,8-dimethoxy-2-(3-hydroxy-4-methoxyphenyl)-4H-chromen-4-one]",8.7
11,"CC(=O)Oc1ccc(-c2cc(=O)c3ccc(O)c(O)c3o2)cc1OC(C)=O [Compound 90, 2-(3,4-diacetoxyphenyl)-7,8-dihydroxy-4H-chromen-4-one]",0.64

# The remaining lines, values ahead:
row,IC50 [µM],Structure (SMILES)
1,33,"O=c1cc(-c2ccccc2)oc2c(O)c(O)ccc12 [Compound 1, 7,8-dihydroxy-2-phenyl-4H-chromen-4-one]"
2,3,"O=c1cc(-c2ccc(O)cc2)oc2c(O)c(O)ccc12 [Compound 2, 7,8-dihydroxy-2-(4-hydroxyphenyl)-4H-chromen-4-one]"
3,0.3,"O=c1cc(-c2ccc(O)c(O)c2)oc2c(O)c(O)ccc12 [Compound 3, 2-(3,4-dihydroxyphenyl)-7,8-dihydroxy-4H-chromen-4-one]"
4,25.3,"O=c1cc(-c2ccccc2O)oc2c(O)c(O)ccc12 [Compound 4, 7,8-dihydroxy-2-(2-hydroxyphenyl)-4H-chromen-4-one]"
5,34,"O=c1cc(-c2cccc(O)c2)oc2c(O)c(O)ccc12 [Compound 5, 7,8-dihydroxy-2-(3-hydroxyphenyl)-4H-chromen-4-one]"
6,12,"COc1ccc(-c2cc(=O)c3ccc(O)c(O)c3o2)cc1OC [Compound 7, 7,8-dihydroxy-2-(3,4-dimethoxyphenyl)-4H-chromen-4-one]"
7,0.8,"O=c1c(Cl)c(-c2ccc(O)c(O)c2)oc2c(O)c(O)ccc12 [Compound 37, 3-chloro-2-(3,4-dihydroxyphenyl)-7,8-dihydroxy-4H-chromen-4-one]"
8,0.13,"N#Cc1c(-c2ccc(O)c(O)c2)oc2c(O)c(O)ccc2c1=O [Compound 39, 3-cyano-2-(3,4-dihydroxyphenyl)-7,8-dihydroxy-4H-chromen-4-one]"
9,0.6,"O=c1c(F)c(-c2ccc(O)c(O)c2)oc2c(O)c(O)ccc12 [Compound 41, 3-fluoro-2-(3,4-dihydroxyphenyl)-7,8-dihydroxy-4H-chromen-4-one]"
10,30,"O=c1cc(-c2cccc(Cl)c2)oc2c(O)c(O)ccc12 [Compound 45, 2-(3-chlorophenyl)-7,8-dihydroxy-4H-chromen-4-one]"
11,14.3,"O=c1cc(-c2ccc(Cl)c(Cl)c2)oc2c(O)c(O)ccc12 [Compound 46, 2-(3,4-dichlorophenyl) -7,8-dihydroxy-4H-chromen-4-one]"
12,0.34,"O=c1cc(-c2ccc(O)c(O)c2)oc2c(O)c(O)c(Cl)cc12 [Compound 49, 6-chloro-2-(3,4-dihydroxyphenyl)-7,8-dihydroxy-4H-chromen-4-one]"
13,3.6,"Nc1ccc(-c2cc(=O)c3ccc(O)c(O)c3o2)cc1N [Compound 52, 2-(3,4-diaminophenyl)-7,8-dihydroxy-4H-chromen-4-one]"
14,7.8,"COc1ccc2c(=O)cc(-c3ccc(O)c(O)c3)oc2c1O [Compound 78, 8-hydroxy-7-methoxy-2-(3,4-dihydroxyphenyl)-4H-chromen-4-one]"
15,11.7,"COc1ccc(-c2cc(=O)c3ccc(O)c(O)c3o2)cc1O [Compound 79, 7,8-dihydroxy-2-(3-hydroxy-4-methoxyphenyl)-4H-chromen-4-one]"
